Where a name gives a salt, the structure may show the parent alone.
These molecules were tested against MCH receptor (Homo sapiens, UniProt Q99705) (assay: High throughput functional screening FLIPR/FDSS6000: inhibition of MCH-evoked intracellular Ca2+ changes). Conditions: antagonist activity, 50 nM of MCH, FLIPR or FDSS; read-out: IC50.
Format: cell-based
Outline: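 Seed cells the day before, then load them with Fluo4-AM for one hour at 37° C and wash in HEPES-buffered HBSS, pH 7.4. Add compound for 3 min, then stimulate with 50 nM MCH. Monitor the calcium transient for 290 s.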
For CN(C)c1nc(N[C@H]2CC[C@@H](NC(=O)COc3ccc(F)c(F)c3)CC2)nc2ccccc12 [Example 909, 2-(3,4-Difluorophenoxy)-N-(cis-4-{[4-(dimethylamino)quinazolin-2-yl]amino}cyclohexyl)-acetamide trifluoroacetate], the IC50 was 0.97 nM.

Same assay, conditions: class by percent of control at 10^-7 M or IC50
In the case of CN(C)c1nc(N[C@H]2CC[C@@H](NC(=S)NCCc3ccc(Cl)cc3)CC2)nc2ccccc12 [compound 242], the class is reported as 2 (Class 2: The value of percent of control at 10^−7 M was from 40% to 60% or the value of IC50 was from 50 nM to 200 nM.).
CN(C)c1nc(N[C@H]2CC[C@@H](NC(=S)Nc3ccc(Br)c(Cl)c3)CC2)nc2ccccc12 [compound 311] was tested, and the class was 3 (Class 3: The value of percent of control at 10^−7 M was more than 60% or the value of IC50 was more than 200 nM.).
For CN(C)c1nc(N[C@H]2CC[C@@H](NC(=O)Nc3cc(Cl)nc(Cl)c3)CC2)nc2ccccc12 [compound 352], the class was 3 (Class 3: The value of percent of control at 10^−7 M was more than 60% or the value of IC50 was more than 200 nM.).
With CN(C)c1nc(N[C@H]2CC[C@@H](NC(=S)NCc3ccc(F)cc3)CC2)nc2ccccc12 [compound 274, N-(cis-4-{[4-(dimethylamino)quinazolin-2-yl]amino}cyclohexyl)-N′-(4-fluorobenzyl)thiourea] the class was 2 (Class 2: The value of percent of control at 10^−7 M was from 40% to 60% or the value of IC50 was from 50 nM to 200 nM.).
For Cc1cc(C)c(NC(=S)N[C@H]2CC[C@@H](Nc3nc(N(C)C)c4ccccc4n3)CC2)cc1C [compound 293, N-(cis-4-{[4-(dimethylamino)quinazolin-2-yl]amino}cyclohexyl)-N′-(2,4,5-trimethylphenyl)thiourea], the class was 1 (Class 1: The value of percent of control at 10^−7 M was less than 40% or the value of IC50 was less than 50 nM.).
For CN(C)c1nc(N[C@H]2CC[C@@H](CNC(=S)Nc3cccc(OCc4ccccc4)c3)CC2)nc2ccccc12 [compound 685], the class was 3 (Class 3: The value of percent of control at 10^−7 M was more than 60% or the value of IC50 was more than 200 nM.).
With CN(C)c1nc(N[C@H]2CC[C@@H](NC(=S)Nc3ccc4c(c3)CCC4)CC2)nc2ccccc12 [compound 325, N-(2,3-dihydro-1H-inden-5-yl)-N′-(cis-4-{[4-(dimethylamino)quinazolin-2-yl]amino}cyclohexyl)thiourea] the class was 2 (Class 2: The value of percent of control at 10^−7 M was from 40% to 60% or the value of IC50 was from 50 nM to 200 nM.).
Cc1ccc(NC(=S)N[C@H]2CC[C@@H](Nc3nc(N(C)C)c4ccccc4n3)CC2)cc1Cl [compound 262] was tested, and the class was 2 (Class 2: The value of percent of control at 10^−7 M was from 40% to 60% or the value of IC50 was from 50 nM to 200 nM.).
In the case of CN(C)c1nc(N[C@H]2CC[C@@H](CNC(=O)Nc3cccc(Oc4ccccc4)c3)CC2)nc2ccccc12 [compound 534], the class is reported as 3 (Class 3: The value of percent of control at 10^−7 M was more than 60% or the value of IC50 was more than 200 nM.).
With CN(C)c1nc(N[C@H]2CC[C@@H](CNC(=S)Nc3ccc4c(c3)CCC4)CC2)nc2ccccc12 [compound 747] the class was 3 (Class 3: The value of percent of control at 10^−7 M was more than 60% or the value of IC50 was more than 200 nM.).
For CN(C)c1nc(N[C@H]2CC[C@@H](CNC(=S)Nc3ccc(C(C)(C)C)cc3)CC2)nc2ccccc12 [compound 796], the class was 3 (Class 3: The value of percent of control at 10^−7 M was more than 60% or the value of IC50 was more than 200 nM.).
In the case of CN(C)c1nc(N[C@H]2CC[C@@H](NC(=S)NCc3ccc(Cl)cc3Cl)CC2)nc2ccccc12 [compound 294], the class is reported as 3 (Class 3: The value of percent of control at 10^−7 M was more than 60% or the value of IC50 was more than 200 nM.).
With COc1ccc(NC(=O)NC[C@H]2CC[C@@H](Nc3nc(N(C)C)c4ccccc4n3)CC2)c(C)c1 [compound 556] the class was 2 (Class 2: The value of percent of control at 10^−7 M was from 40% to 60% or the value of IC50 was from 50 nM to 200 nM.).
CN(C)c1nc(N[C@H]2CC[C@@H](NC(=S)Nc3cccc(OCc4ccccc4)c3)CC2)nc2ccccc12 [compound 261] was tested, and the class was 3 (Class 3: The value of percent of control at 10^−7 M was more than 60% or the value of IC50 was more than 200 nM.).
In the case of COC(=O)c1cccc(NC(=S)NC[C@H]2CC[C@@H](Nc3nc(N(C)C)c4ccccc4n3)CC2)c1 [compound 688], the class is reported as 3 (Class 3: The value of percent of control at 10^−7 M was more than 60% or the value of IC50 was more than 200 nM.).
For CN(C)c1nc(N[C@H]2CC[C@@H](CNC(=S)Nc3cc(F)cc(F)c3)CC2)nc2ccccc12 [compound 648], the class was 3 (Class 3: The value of percent of control at 10^−7 M was more than 60% or the value of IC50 was more than 200 nM.).
In the case of CN(C)c1nc(N[C@H]2CC[C@@H](CNC(=O)NCc3ccc(F)cc3)CC2)nc2ccccc12 [compound 553, N-[(cis-4-{[4-(dimethylamino)quinazolin-2-yl]amino}cyclohexyl)methyl]-N′-(4-fluorobenzyl)urea], the class is reported as 2 (Class 2: The value of percent of control at 10^−7 M was from 40% to 60% or the value of IC50 was from 50 nM to 200 nM.).
For CN(C)c1nc(N[C@H]2CC[C@@H](NC(=O)Nc3ccc4c(c3)C(F)(F)OC(F)(F)O4)CC2)nc2ccccc12 [compound 335], the class was 3 (Class 3: The value of percent of control at 10^−7 M was more than 60% or the value of IC50 was more than 200 nM.).
With CN(C)c1nc(N[C@H]2CC[C@@H](NC(=S)NCc3cccnc3)CC2)nc2ccccc12 [compound 396] the class was 3 (Class 3: The value of percent of control at 10^−7 M was more than 60% or the value of IC50 was more than 200 nM.).

Same assay, conditions: class by percent of control at 10^-7 M or by IC50; read-out: class
With CN(C)c1nc(N[C@H]2CC[C@@H](CNC(=O)OCC3c4ccccc4-c4ccccc43)CC2)nc2ccccc12 [compound 884] the IC50 was > 200 nM.
With CN(C)c1nc(N[C@H]2CC[C@@H](NC(=S)Nc3cccc(Cl)c3)CC2)nc2ccccc12 [compound 163] the IC50 was > 200 nM.
For Cc1ccccc1NC(=S)N[C@H]1CC[C@@H](Nc2nc(N(C)C)c3ccccc3n2)CC1 [compound 198], the IC50 was > 200 nM.
Molecule COc1cccc(NC(=O)N[C@H]2CC[C@@H](Nc3nc(N(C)C)c4ccccc4n3)CC2)c1 [compound 46, N-(cis-4-{[4-(dimethylamino)quinazolin-2-yl]amino}cyclohexyl)-N′-(3-methoxyphenyl)urea] has an IC50 of 50 to 200 nM.
With Cc1ccc(F)c(NC(=O)N[C@H]2CC[C@@H](Nc3nc(N(C)C)c4ccccc4n3)CC2)c1 [compound 98, N-(cis-4-{[4-(dimethylamino)quinazolin-2-yl]amino}cyclohexyl)-N′-(2-fluro-5-methylphenyl)urea] the IC50 was > 200 nM.
CN(C)c1nc(N[C@H]2CC[C@@H](NC(=O)Nc3ccc(F)cc3C(F)(F)F)CC2)nc2ccccc12 [compound 823] was tested, and the IC50 was > 200 nM.

Same assay, conditions: class by percent of control at 10^−7 M or by IC50; read-out: class
In the case of CN(C)c1nc(N[C@H]2CC[C@@H](C(=O)NCc3ccc(Cl)nc3)CC2)nc2ccccc12 [Example 1136, cis-N-[(6-chloropyridin-3-yl)methyl]-4-{[4-(dimethylamino)quinazolin-2-yl]amino}cyclohexanecarboxamide], the IC50 is reported as < 50 nM.
With COc1ccc(NC(=O)N[C@H]2CC[C@@H](Nc3nc(N(C)C)c4ccccc4n3)CC2)cc1OC [Example 1010, N-(3,4-dimethoxyphenyl)-N′-(cis-4-{[4-(dimethylamino)quinazolin-2-yl]amino}cyclohexyl)urea] the IC50 was < 50 nM.
CN(C)c1nc(N[C@H]2CC[C@@H](CNC(=O)c3cc(F)ccc3F)C2)nc2ccccc12 [Example 1129, N-[((1R,3S)-3-{[4-(dimethylamino)quinazolin-2-yl]amino}cyclopentyl)methyl]-2,5-difluorobenzamide] showed an IC50 of 50 to 200 nM.
CN(C)c1nc(N[C@H]2CC[C@@H](NC(=O)c3ccc(Oc4ccc(Br)cc4)nc3)CC2)nc2ccccc12 [Example 1061, 6-(4-bromophenoxy)-N-(cis-4-{[4-(dimethylamino)quinazolin-2-yl]amino}cyclohexyl)nicotinamide] was tested, and the IC50 was > 200 nM.
For CC(NC(=O)[C@H]1CC[C@@H](Nc2nc(N(C)C)c3ccccc3n2)CC1)c1ccc(F)cc1 (relative stereo) [Example 1138, cis-4-{[4-(dimethylamino)quinazolin-2-yl]amino}-N-[1-(4-fluorophenyl)ethyl]cyclohexanecarboxamide], the IC50 was < 50 nM.
In the case of CN(C)c1nc(N[C@H]2CC[C@@H](CNC(=O)Nc3ccccc3Cl)CC2)nc2ccccc12 [Example 1021, N-(2-chlorophenyl)-N′-[(cis-4-{[4-(dimethylamino)quinazolin-2-yl]amino}cyclohexyl)methyl]urea], the IC50 is reported as 50 to 200 nM.
With COc1cccc(C(=O)N[C@H]2CC[C@@H](Nc3nc(N(C)C)c4cc(F)c(F)cc4n3)CC2)c1 [Example 1208, N-(cis-4-{[4-(dimethylamino)-6,7-difluoroquinazolin-2-yl]amino}cyclohexyl)-3-methoxybenzamide] the IC50 was < 50 nM.
CN(C)c1nc(N[C@H]2CC[C@@H](NC(=O)c3ccc(F)cc3)CC2)nc2cc(F)c(F)cc12 [Example 1207, N-(cis-4-{[4-(dimethylamino)-6,7-difluoroquinazolin-2-yl]amino}cyclohexyl)-4-fluorobenzamide] was tested, and the IC50 was < 50 nM.
With Cc1cccc(NCC(=O)N[C@H]2CC[C@@H](Nc3nc(N(C)C)c4ccccc4n3)CC2)c1 [Example 1086, N-(cis-4-{[4-(dimethylamino)quinazolin-2-yl]amino}cyclohexyl)-N2-(3-methylphenyl)glycinamide] the IC50 was < 50 nM.
For COc1cc(Cl)ccc1Oc1ccc(C(=O)N[C@H]2CC[C@@H](Nc3nc(N(C)C)c4ccccc4n3)CC2)cn1 [Example 1068, 6-(4-chloro-2-methoxyphenoxy)-N-(cis-4-{[4-(dimethylamino)quinazolin-2-yl]amino}cyclohexyl)nicotinamide], the IC50 was 50 to 200 nM.
For CN(C)c1nc(N[C@H]2CC[C@@H](C(=O)NCc3c(F)ccc(Cl)c3F)CC2)nc2ccccc12 [Example 1147, cis-N-(3-chloro-2,6-difluorobenzyl)-4-{[4-(dimethylamino)quinazolin-2-yl]amino}cyclohexanecarboxamide], the IC50 was < 50 nM.

From patent publication US20070010671A1, “Novel quinazoline derivatives and methods of treatment related to the use thereof” (priority 2003, published 2007)
